The values that follow come from patent US20220249457A1, “METHOD OF MODULATING RIBONUCLEOTIDE REDUCTASE” (CASE WESTERN RESERVE UNIVERSITY, priority 2019, published 2022).

Molecules are shown by their SMILES.

For one data set, the target named is T1, hRRM1 (Homo sapiens, UniProt P23921).
T1 construct: made in house; host or cells: E. coli BL21 DE3 (RIL)
T1 sequence (P23921 1-792): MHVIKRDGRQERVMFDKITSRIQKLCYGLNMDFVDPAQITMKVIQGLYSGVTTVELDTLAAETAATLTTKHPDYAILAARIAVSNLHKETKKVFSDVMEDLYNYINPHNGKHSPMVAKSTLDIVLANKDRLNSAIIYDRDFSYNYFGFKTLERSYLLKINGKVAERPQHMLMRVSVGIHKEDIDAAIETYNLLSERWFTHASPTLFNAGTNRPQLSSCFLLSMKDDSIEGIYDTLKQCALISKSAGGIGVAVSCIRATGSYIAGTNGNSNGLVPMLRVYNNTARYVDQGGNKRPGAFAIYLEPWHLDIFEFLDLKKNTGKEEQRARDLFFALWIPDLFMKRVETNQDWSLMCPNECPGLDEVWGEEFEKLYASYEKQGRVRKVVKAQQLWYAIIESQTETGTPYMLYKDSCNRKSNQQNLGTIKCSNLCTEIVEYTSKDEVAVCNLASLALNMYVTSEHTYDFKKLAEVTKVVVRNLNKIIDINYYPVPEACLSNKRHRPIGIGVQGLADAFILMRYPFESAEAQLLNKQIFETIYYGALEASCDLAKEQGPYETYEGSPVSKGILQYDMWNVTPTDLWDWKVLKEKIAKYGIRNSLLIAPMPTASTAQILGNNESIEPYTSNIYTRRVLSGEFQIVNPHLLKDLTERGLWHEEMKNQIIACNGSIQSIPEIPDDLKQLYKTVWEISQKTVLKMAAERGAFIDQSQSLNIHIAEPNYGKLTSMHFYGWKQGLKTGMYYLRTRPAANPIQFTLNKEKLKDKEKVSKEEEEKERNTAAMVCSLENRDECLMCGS
As to the kind of experiment: hRRM1 enzyme activity inhibition (RR radioactivity assay, boronate chromatography). The format is biochemical. As to conditions: potency ranking by minimum concentration required to inhibit enzyme activity; six concentrations 1-100 μM incubated with hRRM1 30 minutes, diluted by a factor of 5. On the set-up: key: Compounds which are found to have extremely high potency are classified as “****”; Compounds which are found to have very high potency […] are classified as “***”. The method, then: Activity measurements in Table 2 is performed as described below. Briefly, six concentrations of the compounds ranging from 1-100 μM of the compounds are incubated on ice with 2.5 μmol of hRRM1 for 30 minutes. The assay sample was then diluted by a factor of 5, and enzyme activity was assayed in triplicate. […] Activity measurements are based on the qualitative relation between the minimum concentration of compound required to produce inhibit enzyme activity. Potency activities are ranked as either extremely high, very high or significant. These activities are used to determine the activity ranking. Compounds which are found to have extremely high potency are classified as “****” Compounds which are found to have very high potency […] are classified as “***”. Compounds which are found to have significant potency are classified as
In assay buffer, six concentrations of the compounds ranging from 1-100 μM of the compounds are incubated on ice with 2.5 μmol of hRRM1 for 30 minutes. The assay sample was then diluted by a factor of 5, and enzyme activity was assayed in triplicate.
The IC50 are determined using, boronate chromatography. Six concentrations of the RRmod are studied ranging from 1-100 μM. The assay is repeated in triplicate. Data are fitted in GraphPad Prism 6.05 using a sigmoidal dose-response curve.

The target in the next data set is T2, hRRM1 hexamers (Homo sapiens, UniProt P23921).
T2 sequence (P23921 1-792): T1 sequence (P23921 1-792)
The note with it: cited from earlier work.

In data set [1] the test system is normal mobilized peripheral blood progenitor cells. As to conditions: previously characterized; cited from earlier work.

As to `c1cncc(-c2noc(-c3cccnc3)n2)c1`, the Activity entry on hRRM1 was “****”.
Still for that read-out and setting: next, `COc1ccc(-c2ccccc2)c(-c2nnc(-c3ccccc3O)o2)c1O`: “***”; `Oc1ccccc1-c1nc(-c2cccnc2)no1`: “****”; `Oc1ccccc1-c1nnc(-c2ccccc2O)o1`: “***”.
The same measure, in the same setting: next, `Oc1ccccc1-c1nnc(-c2cc(-c3ccccc3)ccc2O)o1`: “***”.
The same measure, in the same setting: next, `COc1ccc(Br)c(-c2nnc(-c3ccccc3O)o2)c1O`: “***”; `COc1ccccc1-c1noc(-c2ccccc2O)n1`: “***”; `Oc1ccccc1-c1cnc(-c2ccccc2O)s1`: “***”.
With `Oc1ccccc1-c1nc(-c2ccccc2-c2ccccc2)no1`, the Activity result at hRRM1 is “***”.
The same measure, in the same setting: next, `Oc1ccccc1-c1c[nH]c(-c2ccccc2O)n1`: “***”; `Oc1ccccc1-c1cn(-c2ccccc2O)nn1`: “***”.
`COc1ccc(-c2cnc(-c3ccccc3O)s2)cc1`: the Activity result on hRRM1 is “***”.
Still for that read-out and setting: next, `COc1ccc(-c2ccsc2)c(-c2nnc(-c3ccccc3O)o2)c1O`: “***”; `Oc1ccccc1-c1nc(-c2ccccc2-c2ccsc2)no1`: “***”.
As to `Oc1ccc(Br)cc1-c1nnc(-c2cccnc2)o1`, on hRRM1, the Activity entry is recorded as “***”.
On to `Nc1nc(Cl)nc2c1ncn2[C@@H]1O[C@H](CO)[C@@H](O)[C@@H]1F` [clofarabine, 2′-fluro-2′-deoxyarabinofuranosyl-2-chloroadenine], for which, at hRRM1 hexamers, the binding affinity entry was “nanomolar affinity”.
`c1cncc(-c2noc(-c3cnc4ccccc4c3)n2)c1`: the Activity result on hRRM1 is on record as “***”.
On the same count and under the same terms, next, `COc1ccccc1-c1nc(-c2ccccc2O)no1`: “****”.
The same measure, in the same setting: next, `Oc1ccccc1-c1noc(-c2cccs2)n1`: “***”.
The same measure, in the same setting: next, `c1cncc(-c2noc(-c3ccco3)n2)c1`: “***”; `c1cncc(-c2noc(-c3cccs3)n2)c1`: “***”; `Oc1ccccc1-c1noc(-c2cccnc2)n1`: “****”.
For `Oc1ccccc1-c1nc(-c2ccccc2OCc2ccccc2)no1`, at hRRM1, the Activity entry is “***”.
For the molecule `Oc1ccccc1-c1nnn(-c2ccccc2O)n1`, the Activity result at hRRM1 is recorded as “***”.
As for `O=C(NN=Cc1c(O)ccc2ccccc12)c1ccccc1O` [NSAAH, Naphthyl Salicyl Acyl Hydrazone], the cytotoxicity entry in data set [1] is listed as “little measurable cytotoxicity”.
On to `Oc1ccccc1-c1nc(-c2ccccc2Br)no1`, for which, at hRRM1, the Activity result is “****”.
